This assay has as its target T1, TTK (Homo sapiens, UniProt P33981).
T1 construct: purchased Eurofins Discovery (France)
T1 sequence (P33981 1-857): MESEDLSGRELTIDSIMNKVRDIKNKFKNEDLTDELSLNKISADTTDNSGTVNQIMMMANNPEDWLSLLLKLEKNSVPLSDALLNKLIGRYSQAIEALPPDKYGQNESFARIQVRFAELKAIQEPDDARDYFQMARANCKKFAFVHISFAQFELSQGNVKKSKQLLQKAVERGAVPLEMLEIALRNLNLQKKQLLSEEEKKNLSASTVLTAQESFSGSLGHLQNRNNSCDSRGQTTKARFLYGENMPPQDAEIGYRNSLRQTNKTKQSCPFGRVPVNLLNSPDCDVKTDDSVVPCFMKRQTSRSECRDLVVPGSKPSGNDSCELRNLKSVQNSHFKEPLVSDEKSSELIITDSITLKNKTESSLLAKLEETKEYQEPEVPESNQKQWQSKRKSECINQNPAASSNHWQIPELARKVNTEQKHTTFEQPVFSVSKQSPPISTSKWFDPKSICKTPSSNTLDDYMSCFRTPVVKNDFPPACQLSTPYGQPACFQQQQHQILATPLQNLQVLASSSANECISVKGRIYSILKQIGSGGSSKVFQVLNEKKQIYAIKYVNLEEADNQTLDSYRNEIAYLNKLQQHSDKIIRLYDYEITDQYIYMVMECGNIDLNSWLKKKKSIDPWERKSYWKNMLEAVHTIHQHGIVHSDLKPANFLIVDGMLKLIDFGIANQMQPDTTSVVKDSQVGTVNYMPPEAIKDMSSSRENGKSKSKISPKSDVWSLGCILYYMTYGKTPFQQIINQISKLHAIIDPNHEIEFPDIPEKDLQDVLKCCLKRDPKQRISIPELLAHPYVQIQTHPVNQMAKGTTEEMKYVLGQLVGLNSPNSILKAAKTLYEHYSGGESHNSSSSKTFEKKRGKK
Put plainly: Kinase selectivity panel at 1 µM (Eurofins), TTK. In kind it is biochemical. The conditions noted are these: read-out: residual enzyme activity TTK. As to the method: Three representative compounds (14d, 14e, and 15a) were profiled in a 1 µM concentration against 30 kinases that were selected as known off-targets of approved CDK4/6 inhibitors. […] Additional sensitive kinases include STK16, EphA1, MEKK2, SRC, and MER (≤10% of residual enzyme activities), which are not targets of the structurally similar CDK4/6 inhibitor, trilaciclib. We also screened compound 15a, an analogue of 14d, bearing isopropyl at position 7 of the purine instead of the methyl group. This change rapidly diminished the potency against CDK4 (dropped to 90% of residual enzyme activity), but the preference for FLT3 remained (1st rank) (Figure 2).
CDK/cyclin complexes and FLT3 kinases were assayed as previously described. Protein kinase selectivity was evaluated at a single concentration (1 µM) by screening against 30 enzymes at Eurofins Discovery (France).

A value given as a limit tells only on which side of the number the result lay.

As for `CC(C)n1c(=O)n(C2CCCC2)c2nc(Nc3ccc(N4CCNCC4)cc3)ncc21` [15a, 9-cyclopentyl-7-isopropyl-2-((4-(piperazin-1-yl)phenyl)amino)-7,9-dihydro-8H-purin-8-one], the remaining activity at 1 µM is at most 10%.

The values above are taken from paper PMC9782245, “Synthesis and Structural Optimization of 2,7,9-Trisubstituted purin-8-ones as FLT3-ITD Inhibitors” (International Journal of Molecular Sciences, 2022).
